Experimental data published in patent US5063205A, “Uptake of iron by the body” (National Research Development Corporation, priority 1987, dated 1991).

What was measured:
duodenum = assay: Duodenum wet weight and cell turnover (L-ornithine decarboxylase activity) after oral EGF; type: in vivo, mouse; details: oral EGF about 1 n.mole/day, up to 7 days
[1] = tested on: tied-off loop of intestine of an anaesthetised mouse; assay: In vivo 59Fe3+ uptake from tied-off loop of intestine of anaesthetised mouse
Protocol: (§1) (A) Six week old, male To mice received doses averaging 1 n.mole/day of mouse epidermal growth factor in their drinking water during a period of up to 7 days, a control group of similar mice receiving plain drinking water. Iron absorption was then studied in the mice by both in vitro and in vivo techniques. The former, using techniques as described by Raja et al, Cell Biochem. and Funct., 1987, 5, 69-76, involved incubation of intestinal fragments from the mice with a 0-450 μM solution of a Fe^3+ chelate (the 2:1 nitrilotriacetate:iron(III) complex) whilst the latter, using techniques as described by Simpson and Peters, Biochim. Biophys. Acta., 1986, 856, 115-122), involved instillation of 50-100 μl of a 250 μM solution of the Fe^3+ chelate into a tied-off loop of intestine of an anaesthetised mouse.

[2] = given intravenously; cited from earlier work
mice = assay: Whole body retention of intragastric 59Fe3+ by gamma counting; type: in vivo, mouse; details: EGF in drinking water for 3 days, 12 hours fast, intragastric 1 μCurie 59Fe3+ as 50 μl of 100 μM chelate; whole body count
Protocol: (B) The procedure described under (A) was repeated but with the treated mice receiving the EGF for 3 rather than 7 days. After fasting for 12 hours both the EGF-treated and the control mice were treated intragastrically with 1 μCurie of ^59 Fe^3+ administered as 50 μl of a 100 μM aqueous solution of the radiolabelled 2:1 nitrilotriacetic acid:iron(III) complex. The mice were subjected to a whole body count by gamma counting at 3 hours and 7 days later.

[3] = tested on: intestinal fragments from the mice; assay: In vitro 59Fe3+ uptake by intestinal fragments from EGF-fed mice; parameters: species or system mouse; details: intestinal fragments of mice given about 1 n.mole/day EGF in drinking water; 0-450 μM Fe3+ nitrilotriacetate chelate; n in parentheses
Protocol: as §1

[4] = mean ± SE, oral EGF about 1 n.mole/day in drinking water, 250 μM Fe3+ chelate in tied-off loop, p < 0.01 vs controls

In the case of epidermal growth factor [EGF], the “Cell turnover rates as reflected by L-ornithine decarboxylase activity in the duodenum” value (duodenum) is reported as “elevated”, the “Time course of total mucosal uptake of 59Fe3+ in vivo” value ([1]; EGF in drinking water for up to 7 days) is reported as “maximal after 3 days” and the Total mucosal flux ([1]; mean ± SE, oral EGF about 1 n.mole/day in drinking water, 250 μM Fe3+ chelate in tied-off loop, p < 0.001 vs controls) is reported as 92.4 ± 8.4 pmol 59Fe3+ /mg tissue/10 minu. The Carcass transfer [1, 4] was 35.3 ± 2.6 pmol 59Fe3+ /mg tissue/10 minu, the Mucosal retention [1, 4] was 57.1 ± 6.3 pmol 59Fe3+ /mg tissue/10 minu and the “Half life in vivo” value [2] was “about 21/2”. For the same substance, the “Percentage of the 59Fe3+ present at 3 hours which was retained after 7 days” value (mice) was 21.0±3.2 and the “Vmax for 59Fe3+ uptake” value [3] was 9.4 ± 1.1 pmol/mg/min.
